Assay results published in a melting point compilation (Tetko et al.; mined from patent text by program, amines drawn as free bases though some values may be those of a salt).

First: CS(=O)CC(=O)c1cc(C(C)(C)C)c(O)c(C(C)(C)C)c1 (stereo unspecified)
Second: C=CCOC(=O)c1ccc(COC(=O)c2cc(C(C)(C)C)c(O)c(C(C)(C)C)c2)cc1
The melting point of the first is higher: 144 to 145 °C for the first, 100 to 101 °C for the second.

First: CCCCNC(=O)Nc1ccc2c(c1Cl)C(c1ccccc1F)=NCC(=O)N2C
Second: O=C1C[N+]([O-])=C(c2ccccc2F)c2cc(Cl)ccc2N1CC(O)CO (stereo unspecified)
The melting point of the first is higher: 196 to 198 °C for the first, 165 to 166 °C for the second.

Compared with `CC(C)(C)OC(=O)N1CCN(c2ccc(Nc3ncc4ccc(N)nc4n3)cc2)CC1`, `COc1cc(C2CCNCC2)ccc1Nc1ncc2ccc(-c3cccc(S(=O)(=O)NC(C)(C)C)c3)n2n1` is lower in melting point: 219 to 220 °C for the first, 201 to 202 °C for the second.

First: CS(=O)(=O)c1ccc(-c2nn(Cc3ccccc3)c(C(F)(F)F)c2-c2ccc(F)cc2)cc1
Second: CC(C)=CCn1ncc(-c2ccc(S(C)(=O)=O)cc2)c(-c2ccc(F)cc2)c1=O
The melting point of the first is lower: 126 °C for the first, 169 to 172 °C for the second.

Going from `O=C(Cl)Oc1ccc(-c2ccccc2)cc1` to `CCC(C)N(C)C(=O)c1cc(-c2ccccc2)cc2ccccc12` (stereo unspecified), the melting point rises from 36 °C to 125 °C.

First: O=C(O)C1Cc2cc3c(=O)c4ccccc4oc3c(Cl)c2O1 (stereo unspecified)
Second: CCc1cc2c(s1)-n1nc(C(N)=O)nc1C(OC)N=C2c1ccccc1Cl (stereo unspecified)
The melting point of the first is higher: 290 to 293 °C for the first, 200 to 201 °C for the second.

First: Cc1cccc(C(=O)OCC=Cc2ccccc2)c1O
Second: Cc1ccc(C)c(C(=O)c2ccccc2)c1O
The melting point of the first is higher: 154 °C for the first, 111 to 114 °C for the second.

First: CCCn1c(=O)c(N=O)c(N)n(CC2CCCCC2)c1=O
Second: CCCn1c(=O)cc(Cl)n(CC#N)c1=O
The melting point of the first is higher: 231 to 233 °C for the first, 83 to 84 °C for the second.

`CCOC(=O)C(=CNc1ccccc1CO)C(=O)C(C)C` and `CCOC(=O)COc1ccc([N+](=O)[O-])cc1` cannot be ordered by melting point: 72 to 84 °C for the first, 75 to 76 °C for the second.

First: O=C(O)COc1ccc(/C=C/C(=O)C(F)(F)F)cc1
Second: CCC(=O)COc1ccc(CC2SC(=O)NC2=O)cc1 (stereo unspecified)
The melting point of the first is higher: 156 °C for the first, 142 to 146 °C for the second.

First: C=CCSc1ccc(OCCO)nn1
Second: CCOC(=O)c1ccc(-c2nc3ccc(C)cn3c2CO)cc1
The melting point of the first is lower: 38 to 40 °C for the first, 157 to 159 °C for the second.

First: COc1cc(/C=C/c2ccc(C(C)(C)C)cc2)cc(OC)c1OC
Second: COc1ccc2c(CNCCCCCC(=O)O)cc3cc(OC)c(OC)cc3c2c1
The melting point of the first is lower: 127 to 128 °C for the first, 133 to 134 °C for the second.

First: CCCCN1CCCC1CNC(=O)c1cc(S(N)(=O)=O)cc2c1OC(C)C2 (stereo unspecified)
Second: CCOCC1(O)CCN(c2ccc(N3C[C@H](CNC(C)=O)OC3=O)cc2F)CC1
The melting point of the first is higher: 170 °C for the first, 76 to 78 °C for the second.

First: COc1ccc2c(c1)OC(c1ccc(Cl)cc1)CC2=O (stereo unspecified)
Second: Cc1ncc(-c2ccc(F)cc2)n1-c1ccc(Cl)cc1
The melting point of the first is lower: 97 to 99 °C for the first, 132 to 134 °C for the second.

First: Cc1ccc2c(c1)SC1(CCOC1=O)C2=O (stereo unspecified)
Second: N#Cc1ccc(N2C(=O)N(CCCO)C3(CCOCC3)C2=O)cc1C(F)(F)F
The melting point of the first is lower: 122 to 124 °C for the first, 155 to 156 °C for the second.

First: O=c1ccn(-c2cccc3c2OC(F)(F)O3)nc1-c1ccnn1-c1ccccc1
Second: COc1cc(N2C(=O)c3ccccc3C2=O)c2nccc(C)c2c1Oc1cccc(C(F)(F)F)c1
The melting point of the first is lower: 105 to 107 °C for the first, 228 to 230 °C for the second.

Compared with `CCCCC(=O)Nc1c(C(=O)OC)cc(C)cc1[N+](=O)[O-]`, `C=CCNc1c([N+](=O)[O-])cc(C(=O)OC)c(Nc2ccc(I)cc2F)c1F` is higher in melting point: 59 to 60 °C for the first, 153 to 154 °C for the second.

Compared with `COC(=O)c1cc2ccc(O)cc2o1`, `COC(=O)/C=C/c1ccc(OC)cc1N` is lower in melting point: 176 to 177 °C for the first, 149 °C for the second.

First: CCC(C)COC(=O)Cn1cccc1-c1nc(-c2ccc(OC)cc2)c(-c2ccc(OC)cc2)s1 (stereo unspecified)
Second: COc1ccc(CN(Cc2ccc(OC)cc2)c2nc(Cl)c3ncn(Cc4ccc(OC)cc4)c3n2)cc1
The melting point of the first is lower: 81.5 to 84.5 °C for the first, 157 to 159 °C for the second.

First: CSCC(C)Nc1nccc(-c2ccnc(Nc3cccc(F)c3)c2)n1 (stereo unspecified)
Second: CSc1ccc(-n2cnc(-c3ccc(F)cc3)c2-c2ccncc2)cc1
The melting point of the first is lower: 104 to 107 °C for the first, 172 to 173 °C for the second.

First: N#Cc1cc(C(=O)NN2CCOCC2)ccc1O
Second: Cc1cc(F)c(Nc2ncnc3cc(NC(=O)CCN4CCOCC4)ccc23)cc1O
The melting point of the first is higher: 238 to 240 °C for the first, 228 to 233 °C for the second.

Compared with `O=C(O)C(=O)Nc1ccc(Oc2ccc(NC(=O)C(=O)O)cc2)cc1`, `O=C(Nc1ccc(C(F)(F)F)cc1)c1ccccc1NCc1ccncc1` is lower in melting point: over 320 °C for the first, 171 to 175 °C for the second.

First: CCC1(CC)C=C(N2CCSC2=NC#N)c2cc(C#N)ccc2O1
Second: Cc1cc(-c2nc3ccc(CCN4CCCC4)cc3c(=O)[nH]2)cc(C)n1
The melting point of the first is higher: 251 to 252 °C for the first, 212 to 213 °C for the second.

Compared with `COCCOc1ccc2sc(C(=O)Nc3ccccc3N)cc2c1`, `NC(=O)COc1cccc(CCNS(=O)(=O)c2cccc(C(F)(F)F)c2)c1` is lower in melting point: 162 to 165 °C for the first, 118 °C for the second.

Compared with `O=C1C(=Cc2cccnc2)CCc2ccc(Br)cc21`, `O=C1c2ccc(O)cc2OCC1Cc1cccnc1` (stereo unspecified) is higher in melting point: 124 to 125 °C for the first, 181 to 190 °C for the second.

Compared with `Cc1cc(C)nc(Sc2ccnc3cc(Cl)cc(Cl)c23)n1`, `Cc1ccc(Cn2c(=O)c3c(Cl)cc(Cl)cc3n(Cc3ccccc3)c2=O)cc1C` is lower in melting point: 182 to 183 °C for the first, 126 to 132 °C for the second.

First: CCOc1cc(CCC(=O)O)ccc1OCCCc1cn(-c2ccc(C(F)(F)F)cn2)nc1OCC
Second: COc1ccc(-c2cc(C(C)(C)CC(C)(C)C)cc(-n3nc4ccc(C(F)(F)F)cc4n3)c2O)cc1
The melting point of the first is higher: 114 to 115 °C for the first, 99 to 102 °C for the second.

First: CSc1nc(Br)cc(Oc2cccc(C(F)(F)F)c2)n1
Second: CNc1cc(S(=O)(=O)c2ccccc2)cc(Br)n1
The melting point of the first is lower: 70 to 71 °C for the first, 145 to 148 °C for the second.

Compared with `COc1cc(OCC(=O)N2CCOCC2)c(C=CC(=O)c2ccc(C(=O)O)cc2)cc1-c1cccs1`, `COc1cccc2c1CC(C(=O)NCCOc1ccc(C(=O)OC(C)(C)C)cc1)N2S(=O)(=O)c1ccc(-c2ccc(F)cc2Cl)cc1` (stereo unspecified) is lower in melting point: 231 to 233 °C for the first, 79 to 85 °C for the second.

First: Cc1cc(Nc2ccc(S(F)(F)(F)(F)F)cc2)c(S(C)(=O)=O)cc1C(=O)O
Second: Cc1ccc(S(=O)(=O)NC(=O)CC(=O)O)cc1
The melting point of the first is higher: 106 to 109 °C for the first, 80 °C for the second.

Compared with `CN(C)c1ccc([N+](=O)[O-])cc1Cl`, `CN1C(=S)N(c2ccc(Cl)c(Cl)c2)C(O)C1O` (stereo unspecified) is higher in melting point: 71 to 73 °C for the first, 115 to 117 °C for the second.

First: CSc1ccc(CC2=C(O)CSC2=O)cc1
Second: CCc1ccc(CC2CNC(=O)O2)cc1 (stereo unspecified)
The melting point of the first is higher: 206 to 208 °C for the first, 133 to 134 °C for the second.

First: CN1C(C)(C)CC(O)C(O)C1(C)C (stereo unspecified)
Second: COC1(OC)C2(Cl)C(Cl)=C(Cl)C1(Cl)C(O)C2O (stereo unspecified)
The melting point of the first is lower: 78 °C for the first, 160 to 162 °C for the second.

First: Cc1nc2c3c(ccc2n1C)C(O)C(OC(=O)C(C)(C)C)C(c1ccccc1)O3 (stereo unspecified)
Second: Cn1cnc(COc2nc3c(cc2C(C)(C)C)nnn3-c2ccccc2)n1
The melting point of the first is lower: 148 °C for the first, 179 to 180 °C for the second.

`CN(C)c1ccc(Pc2ccc(N(C)C)cc2)cc1` and `CCOc1ccc(C(c2ccc(C(C)CC)cc2)C(CC)[N+](=O)[O-])cc1` (stereo unspecified) cannot be ordered by melting point: 80 to 90 °C for the first, 89 to 90 °C for the second.

First: CN1CCN(C(=O)c2ccc(-c3cnc4c(c3)N(Cc3ccccc3)CCN4)cc2)CC1
Second: O=C(c1ccccc1)c1ccc2nc(-c3ccc[nH]3)[nH]c2c1
The melting point of the first is higher: 180 to 181 °C for the first, 128 to 133 °C for the second.

Compared with `Nc1ccc(CCc2ccc(Cl)c(Cl)c2)cc1`, `O=c1[nH]c(Cc2ccccc2)ccc1CCl` is higher in melting point: 68 to 70 °C for the first, 142 to 145 °C for the second.

First: CC(C)c1ccc(S(=O)(=O)c2ccccc2)c(C(C)C)c1
Second: O=c1oc(-c2ccccc2)cc(O)c1SCCc1ccccc1
The melting point of the first is lower: 105 to 107 °C for the first, 121 to 124 °C for the second.

Compared with `OCC12CN3CN(C(c4ccccc4)N(C1)C3c1ccccc1)C2c1ccccc1` (stereo unspecified), `NNC(=O)C(CC1CC2CCN1CC2)(c1ccccc1)c1ccccc1` (stereo unspecified) is higher in melting point: 91 to 93 °C for the first, 158 to 160 °C for the second.

First: CC1(C)CC(=O)C2=C(C1)NC1=C(C(=O)CC(C)(C)C1)C2c1ccc(OC(F)(F)F)cc1
Second: NS(=O)(=O)c1cccc(NC(=O)c2cnn3c(C(F)(F)F)cc(-c4ccc(OC(F)(F)F)cc4)nc23)c1
The melting point of the first is lower: 234 °C for the first, 257 °C for the second.

First: CCCC1(CCC)c2cc(-c3nc4cc(C)ccc4o3)ccc2-c2cc(O)c(-c3nc4cc(C)ccc4o3)cc21
Second: CCCCCCCN(CCCCCSc1nc(-c2ccc(O)cc2)c(-c2ccc(O)cc2)[nH]1)C(=O)Nc1ccc(F)cc1F
The melting point of the first is higher: 291 to 293 °C for the first, 110 to 112 °C for the second.

First: COc1ccc(S(=O)(=O)N2CCc3cccc(-c4ccncc4)c32)cc1
Second: COc1ccc(CN(C)CCOc2ccc(NC(=O)c3cccc4c(=O)c5cc(SC)ccc5[nH]c34)cc2)cc1OC
The melting point of the first is higher: 196 to 197 °C for the first, 160 °C for the second.

First: CC(=O)Oc1ccc2c(c1)C1C(OC(=O)C(C)(C)C)CC3(C)C(OC(=O)C(C)(C)C)CCC3C1CC2 (stereo unspecified)
Second: O=C(CCCCCCNC(=O)C(=O)c1cn2c3c(cccc13)CCC2)NO
The melting point of the first is lower: 143 to 146 °C for the first, 158 to 159 °C for the second.

First: O=C1CCc2c1sc1c2CCCC1
Second: O=C(O)c1sc(Oc2ccc3c(c2)OCO3)c2c1CCc1cnoc1-2
The melting point of the first is lower: 43 to 44 °C for the first, 226 to 228 °C for the second.

First: O=C(O)C1=COCC(C(=O)O)=C1
Second: CCCCCCCCCc1ccc(C(=O)CC(=O)C(=O)OC)cc1
The melting point of the first is higher: 87 to 90 °C for the first, 52 to 53.5 °C for the second.

Compared with `C[C@H](Cn1ncnn1)n1cnc2cc3c(=O)n(C4CC4)cnc3cc2c1=O`, `COCCOc1cc2ncnc(Nc3cc(OC)c(Br)cc3OC)c2cc1OC` is lower in melting point: 221 to 223 °C for the first, 217 to 221 °C for the second.

First: CNN(NC)C(=O)Nc1cccc2c1C(=O)c1c-2n[nH]c1C(C)C
Second: Cc1ccc(Cl)c(Nc2ccccc2-c2n[nH]c(=S)[nH]2)c1Cl
The melting point of the first is lower: 231 to 233 °C for the first, 300 to 305 °C for the second.

First: CC(C)(C)C(NC(=O)c1ccc(Cl)cc1)NC(=NC#N)NCc1ccccc1Cl (stereo unspecified)
Second: CCCCCCCCCCOC(=O)OC(C)OC1=C(C(=O)Nc2ccccn2)N(C)S(=O)(=O)c2ccccc21 (stereo unspecified)
The melting point of the first is higher: 180 to 182 °C for the first, 84 to 86 °C for the second.

First: CNc1nn(C(=O)NC(C)(C)C)c(=O)n1N
Second: NCC1c2ccccc2CCN1CC(O)CN1CCOCC1 (stereo unspecified)
The melting point of the first is higher: 174 °C for the first, 138 to 139 °C for the second.

First: O=C1c2ccccc2C(=S)N1C1CCC(=S)NC1=S (stereo unspecified)
Second: COc1cc2c(c(C(C)C)c1OC)CC(C)C(Br)=C2 (stereo unspecified)
The melting point of the first is higher: 244 °C for the first, 71 to 72 °C for the second.

For `c1cc(OC2CN3CCC2CC3)no1` (stereo unspecified), the melting point was 80 to 81 °C.
